Test results reported in patent US20240058422A1, “GLUCAGON-LIKE PEPTIDE-1 RECEPTOR ANTAGONISTS” (INDIANA UNIVERSITY RESEARCH AND TECHNOLOGY CORPORATION, priority 2022, published 2024).
Converted amounts (≈) assume the structure as drawn. Non-standard residues stand in square brackets, D forms with d. Residues, ends and D or L forms follow the SMILES beside them. No end group written: not given here. *: point of attachment. C18 diacid = O=C(O)CCCCCCCCCCCCCCCCC(=O)*; Palmitoyl = CCCCCCCCCCCCCCCC(=O)*; pGlu = O=C1CC[C@@H](C(=O)O)N1; Aib = CC(C)(N)C(=O)O

What was measured:
GLP-1R [1] = target: T1, GLP-1R (Homo sapiens, UniProt P43220); test: GLP-1 receptor-mediated cAMP induction, luciferase reporter gene antagonism assay; type: cell-based; set-up: host or cells: HEK 293; conditions: antagonism of 0.05 nM GLP-1, HEK 293 cells
How it was run: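 HEK 293 cells cotransfected with human GLP-1 receptor and CRE-luciferase were serum-deprived 16 h, then given serial peptide dilutions followed by 0.05 nM GLP-1 and incubated 5 h at 37° C.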
Target sequence in this assay (P43220 24-463): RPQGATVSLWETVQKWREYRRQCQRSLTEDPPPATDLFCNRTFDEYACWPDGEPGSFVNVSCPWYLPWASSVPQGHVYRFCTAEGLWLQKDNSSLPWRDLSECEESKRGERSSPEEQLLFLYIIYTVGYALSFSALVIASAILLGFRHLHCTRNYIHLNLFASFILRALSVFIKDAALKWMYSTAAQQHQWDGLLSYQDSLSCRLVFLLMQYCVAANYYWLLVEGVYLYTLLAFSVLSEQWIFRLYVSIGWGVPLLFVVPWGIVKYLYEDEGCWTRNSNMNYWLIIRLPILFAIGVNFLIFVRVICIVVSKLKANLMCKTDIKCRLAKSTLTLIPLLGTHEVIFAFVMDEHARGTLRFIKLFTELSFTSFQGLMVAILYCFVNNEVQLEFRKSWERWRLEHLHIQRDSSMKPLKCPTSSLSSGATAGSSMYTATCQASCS

GLP-1R [2] = target: T1, GLP-1R; test: IC50 nM; set-up: host or cells: HEK 293
Description: Table printed on a drawing sheet, Fig. 10
Head of the field: IC50 nM
Where the first naming reader finds the target: description_of_the_figure: as measured in an in vitro assay using GLP-1R over-expressing 293 cells
Target sequence in this assay (P43220 24-463 limits assumed): as the sequence (P43220 24-463) above

GLP-1R [3] = target: T1, GLP-1R; conditions: after site-specific acylation of the human-based antagonist; cited from earlier work
Target sequence in this assay (P43220 24-463, species assumed): as the sequence (P43220 24-463) above

GIP receptor = target: T2, GIP receptor (Homo sapiens, UniProt P48546); conditions: GLP-1 receptor versus GIP receptor; cited from earlier work
T2 sequence (P48546 22-466): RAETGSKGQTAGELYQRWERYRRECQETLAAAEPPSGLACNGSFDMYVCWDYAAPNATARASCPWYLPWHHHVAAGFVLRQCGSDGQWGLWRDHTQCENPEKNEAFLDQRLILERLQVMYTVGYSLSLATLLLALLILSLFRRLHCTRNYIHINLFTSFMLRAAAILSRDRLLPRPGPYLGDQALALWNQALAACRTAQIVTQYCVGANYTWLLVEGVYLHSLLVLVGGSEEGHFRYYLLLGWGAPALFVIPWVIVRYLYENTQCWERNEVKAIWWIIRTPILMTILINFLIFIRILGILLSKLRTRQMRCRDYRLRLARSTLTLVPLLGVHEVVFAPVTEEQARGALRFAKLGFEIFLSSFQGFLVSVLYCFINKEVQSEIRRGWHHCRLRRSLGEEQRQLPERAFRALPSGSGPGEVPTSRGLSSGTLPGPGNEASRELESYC

human GLP-1 receptor = human GLP-1 receptor (human, UniProt P43220 24-463); test: cell-based or functional assay
[4] = pH 7.7, Solubility [mg/mL] 80 mM AmBicarb pH7.7
[5] = Table 4, Aib variants of 9-40am Jant4 K40[C16], read-out: Bioactivity IC50
[6] = pH 7.7, Solubility [mg/mL] PBS pH7.7

In the case of `CCCCCCCCCCCCCCCC(=O)NCCCC[C@H](NC(=O)[C@H](CO)NC(=O)[C@@H]1CCCN1C(=O)[C@@H]1CCCN1C(=O)[C@@H]1CCCN1C(=O)[C@H](C)NC(=O)CNC(=O)[C@H](CO)NC(=O)[C@H](CO)NC(=O)[C@@H]1CCCN1C(=O)CNC(=O)CNC(=O)[C@H](CCCCN)NC(=O)[C@@H](NC(=O)C(C)(C)NC(=O)[C@H](Cc1c[nH]c2ccccc12)NC(=O)[C@H](C)NC(=O)[C@@H](NC(=O)[C@H](Cc1ccccc1)NC(=O)[C@H](CCC(=O)O)NC(=O)[C@H](CCCNC(=N)N)NC(=O)[C@@H](NC(=O)[C@H](C)NC(=O)[C@H](CCC(N)=O)NC(=O)[C@H](CCC(=O)O)NC(=O)[C@H](CCC(=O)O)NC(=O)[C@H](CC(C)C)NC(=O)[C@H](Cc1ccc(O)cc1)NC(=O)[C@H](CO)NC(=O)[C@H](CO)NC(=O)[C@@H](NC(=O)[C@@H](N)CC(=O)O)C(C)C)C(C)C)[C@@H](C)CC)C(C)C)C(N)=O` [compound 44] (H-DVSSYLEEQAVREFIAW[Aib]VKGGPSSGAPPPSK(Palmitoyl)-NH2), the solubility (physchem; [4]) is reported as 19000 µg/mL (≈ 5260 µM), the solubility (Solubility in buffer; PBS, pH 7.7, Solubility [mg/mL] PBS pH7.7, Table 4, PBS pH7.7) is reported as 100 µg/mL (≈ 27.7 µM) and the IC50 (GLP-1R [1]; [5]) is reported as 8 nM.

For `CCCCCCCCCCCCCCCC(=O)NCCCC[C@H](NC(=O)[C@H](CO)NC(=O)[C@@H]1CCCN1C(=O)[C@@H]1CCCN1C(=O)[C@@H]1CCCN1C(=O)[C@H](C)NC(=O)CNC(=O)[C@H](CO)NC(=O)[C@H](CO)NC(=O)[C@@H]1CCCN1C(=O)CNC(=O)CNC(=O)[C@H](CCCCN)NC(=O)[C@@H](NC(=O)[C@H](CC(C)C)NC(=O)[C@H](Cc1c[nH]c2ccccc12)NC(=O)[C@H](C)NC(=O)[C@@H](NC(=O)[C@H](Cc1ccccc1)NC(=O)[C@H](CCC(=O)O)NC(=O)[C@H](CCCNC(=N)N)NC(=O)[C@@H](NC(=O)[C@H](C)NC(=O)[C@H](CCC(N)=O)NC(=O)[C@H](CCC(=O)O)NC(=O)[C@H](CCC(=O)O)NC(=O)[C@H](CC(C)C)NC(=O)[C@H](Cc1ccc(O)cc1)NC(=O)[C@H](CO)NC(=O)[C@H](CO)NC(=O)[C@@H](NC(=O)[C@@H](N)CC(=O)O)C(C)C)C(C)C)[C@@H](C)CC)C(C)C)C(N)=O` [compound 47] (H-DVSSYLEEQAVREFIAWLVKGGPSSGAPPPSK(Palmitoyl)-NH2; N-terminus assumed), the solubility (physchem; [4]) was 6100 µg/mL (≈ 1680 µM) and the solubility (Solubility in buffer; 80 mM ammonium bicarbonate buffer, pH 7.7, Solubility 80 mM AmeBicarb pH7.7, Table 3, 80 mM AmeBicarb pH7.7) was 6100 µg/mL (≈ 1680 µM).

For `CCCCCCCCCCCCCCCC(=O)NCCCC[C@H](NC(=O)[C@H](CO)NC(=O)[C@@H]1CCCN1C(=O)[C@@H]1CCCN1C(=O)[C@@H]1CCCN1C(=O)[C@H](C)NC(=O)CNC(=O)[C@H](CO)NC(=O)[C@H](CO)NC(=O)[C@@H]1CCCN1C(=O)CNC(=O)CNC(=O)[C@H](CCCCN)NC(=O)C(C)(C)NC(=O)[C@H](CC(C)C)NC(=O)[C@H](Cc1c[nH]c2ccccc12)NC(=O)[C@H](C)NC(=O)[C@@H](NC(=O)[C@H](Cc1ccccc1)NC(=O)[C@H](CCC(=O)O)NC(=O)[C@H](CCCNC(=N)N)NC(=O)[C@@H](NC(=O)[C@H](C)NC(=O)[C@H](CCC(N)=O)NC(=O)[C@H](CCC(=O)O)NC(=O)[C@H](CCC(=O)O)NC(=O)[C@H](CC(C)C)NC(=O)[C@H](Cc1ccc(O)cc1)NC(=O)[C@H](CO)NC(=O)[C@H](CO)NC(=O)[C@@H](NC(=O)[C@@H](N)CC(=O)O)C(C)C)C(C)C)[C@@H](C)CC)C(N)=O` [compound 81] (H-DVSSYLEEQAVREFIAWL[Aib]KGGPSSGAPPPSK(Palmitoyl)-NH2), the solubility (physchem; [4]) was 19000 µg/mL (≈ 5240 µM), the solubility (physchem; [6]) was 1600 µg/mL (≈ 441 µM) and the IC50 (GLP-1R [1]; [5]) was 23 nM.

In the case of `CCCCCCCCCCCCCCCC(=O)NCCCC[C@H](NC(=O)[C@H](CO)NC(=O)[C@@H]1CCCN1C(=O)[C@@H]1CCCN1C(=O)[C@@H]1CCCN1C(=O)[C@H](C)NC(=O)CNC(=O)[C@H](CO)NC(=O)[C@H](CO)NC(=O)[C@@H]1CCCN1C(=O)CNC(=O)CNC(=O)C(C)(C)NC(=O)[C@@H](NC(=O)[C@H](CCCCN)NC(=O)[C@H](Cc1c[nH]c2ccccc12)NC(=O)[C@H](C)NC(=O)[C@@H](NC(=O)[C@H](Cc1ccccc1)NC(=O)[C@H](CCC(=O)O)NC(=O)[C@H](CCCNC(=N)N)NC(=O)[C@@H](NC(=O)[C@H](C)NC(=O)[C@H](CCC(N)=O)NC(=O)[C@H](CCC(=O)O)NC(=O)[C@H](CCC(=O)O)NC(=O)[C@H](CC(C)C)NC(=O)[C@H](Cc1ccc(O)cc1)NC(=O)[C@H](CO)NC(=O)[C@H](CO)NC(=O)[C@@H](NC(=O)[C@@H](N)CC(=O)O)C(C)C)C(C)C)[C@@H](C)CC)C(C)C)C(N)=O` [compound 82] (H-DVSSYLEEQAVREFIAWKV[Aib]GGPSSGAPPPSK(Palmitoyl)-NH2), the solubility (physchem; [4]) is reported as 14200 µg/mL (≈ 3930 µM), the solubility (physchem; [6]) is reported as 100 µg/mL (≈ 27.7 µM) and the IC50 (GLP-1R [1]; [5]) is reported as 6 nM.

In the case of `CC[C@H](C)[C@H](NC(=O)[C@H](Cc1ccccc1)NC(=O)[C@H](CCC(=O)O)NC(=O)[C@H](CCCNC(=N)N)NC(=O)[C@@H](NC(=O)[C@H](C)NC(=O)[C@H](CCC(N)=O)NC(=O)[C@H](CCC(=O)O)NC(=O)[C@H](CCC(=O)O)NC(=O)[C@H](CC(C)C)NC(=O)[C@H](Cc1ccc(O)cc1)NC(=O)[C@H](CO)NC(=O)[C@H](CO)NC(=O)[C@@H](NC(=O)[C@H](CC(=O)O)NC(=O)CCCCCCCCCCCCCCCCC(=O)O)C(C)C)C(C)C)C(=O)N[C@@H](C)C(=O)N[C@@H](Cc1c[nH]c2ccccc12)C(=O)N[C@@H](CC(C)C)C(=O)N[C@H](C(=O)N[C@@H](CCCNC(=N)N)C(=O)NCC(=O)NCC(=O)N1CCC[C@H]1C(=O)N[C@@H](CO)C(=O)N[C@@H](CO)C(=O)NCC(=O)N[C@@H](C)C(=O)N1CCC[C@H]1C(=O)N1CCC[C@H]1C(=O)N1CCC[C@H]1C(=O)N[C@@H](CO)C(=O)O)C(C)C` [compound 1416] ({C18 diacid}-DVSSYLEEQAVREFIAWLVRGGPSSGAPPPS-OH), the IC50 (GLP-1R [2]) is reported as 36 nM.

`CC[C@H](C)[C@H](NC(=O)[C@H](Cc1ccccc1)NC(=O)[C@H](CCC(=O)O)NC(=O)[C@H](CCCNC(=N)N)NC(=O)[C@@H](NC(=O)[C@H](C)NC(=O)[C@H](CCC(N)=O)NC(=O)[C@H](CCC(=O)O)NC(=O)[C@H](CCC(=O)O)NC(=O)[C@H](CC(C)C)NC(=O)[C@H](Cc1ccc(O)cc1)NC(=O)[C@H](CO)NC(=O)[C@H](CO)NC(=O)[C@@H](NC(=O)[C@H](CC(=O)O)NC(=O)CNC(=O)[C@H](CCCCNC(=O)CCCCCCCCCCCCCCCCC(=O)O)NC(=O)[C@@H]1CCC(=O)N1)C(C)C)C(C)C)C(=O)N[C@@H](C)C(=O)N[C@@H](Cc1c[nH]c2ccccc12)C(=O)N[C@@H](CC(C)C)C(=O)N[C@H](C(=O)N[C@@H](CCCNC(=N)N)C(=O)NCC(=O)NCC(=O)N1CCC[C@H]1C(=O)N[C@@H](CO)C(=O)N[C@@H](CO)C(=O)NCC(=O)N[C@@H](C)C(=O)N1CCC[C@H]1C(=O)N1CCC[C@H]1C(=O)N1CCC[C@H]1C(=O)N[C@@H](CO)C(=O)O)C(C)C` [compound 1417] ([pGlu]K(C18 diacid)GDVSSYLEEQAVREFIAWLVRGGPSSGAPPPS-OH) gave an IC50 (GLP-1R [2]) of 80 nM.

`CC[C@H](C)[C@H](NC(=O)[C@H](Cc1ccccc1)NC(=O)[C@H](CCC(=O)O)NC(=O)[C@H](CCCNC(=N)N)NC(=O)[C@@H](NC(=O)[C@H](C)NC(=O)[C@H](CCC(N)=O)NC(=O)[C@H](CCC(=O)O)NC(=O)[C@H](CCC(=O)O)NC(=O)[C@H](CC(C)C)NC(=O)[C@H](Cc1ccc(O)cc1)NC(=O)[C@H](CO)NC(=O)[C@H](CO)NC(=O)[C@@H](NC(=O)[C@H](CC(=O)O)NC(=O)[C@@H]1CCC(=O)N1)C(C)C)C(C)C)C(=O)N[C@@H](C)C(=O)N[C@@H](Cc1c[nH]c2ccccc12)C(=O)N[C@@H](CC(C)C)C(=O)N[C@H](C(=O)N[C@@H](CCCNC(=N)N)C(=O)NCC(=O)NCC(=O)N1CCC[C@H]1C(=O)N[C@@H](CO)C(=O)N[C@@H](CO)C(=O)NCC(=O)N[C@@H](C)C(=O)N1CCC[C@H]1C(=O)N1CCC[C@H]1C(=O)N1CCC[C@H]1C(=O)N[C@@H](CO)C(=O)N[C@@H](CCCCNC(=O)CCCCCCCCCCCCCCCCC(=O)O)C(=O)O)C(C)C` [compound 1418, Z DVSSYLEEQAVREFIAWLVRGGPSSGAPPPSO-acid] ([pGlu]DVSSYLEEQAVREFIAWLVRGGPSSGAPPPSK(C18 diacid)-OH) gave an IC50 (GLP-1R [2]; read-out: IC50) of 67 nM.

In the case of “DVSSYLEEQAVREFIAWLVKGGPSSGAPPPSK[C16]-OH (DVSSYLEEQAVREFIAWLVKGGPSSGAPPPSK(Palmitoyl)-OH) [SEQ ID NO: 3]”, the “potency as a GLP-1 receptor antagonist” value (GLP-1R [3]) is listed as “increased potency” and the “selectivity relative to the GIP receptor” value (GIP receptor) is listed as 10 fold.

“H-DVSSYLEEQAVREFIAWLVKGGPSSGAPPPSK-NH2 [compound 95]” gave a solubility (physchem; [4]) of 12700 µg/mL and an IC50 (GLP-1R [1]; Table 2, C16 linker variants of 9-40amide Jant4 K40[X], read-out: Biactivity IC50) of 281 nM.

For XGDLSKQMEEEAVRLFIEWLKNGGPSSGAPPPS (dK at position 7 acylated with Peg2-gE(C16); C-terminal amide (-NH2)) [Ex9-39amide, dK7 (PEG2-γE(C16)), G8], the “IC50 (nM): block of cAMP induction by GLP-1 (0.05 nM), luciferase reporter in HEK 293 cells with human GLP-1 receptor” value (human GLP-1 receptor) was 6.2 nM.
